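Exposure lasted 48 hours, with cells grown in 96-well plates and compounds tested at five concentrations. The concentration for 50% growth inhibition is given as GI50. TGI: concentration producing complete growth inhibition.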

Among the test systems are BT-549 breast; COLO 205 colon; MOLT-4 leukemia; NCI-H522 lung; OVCAR-3 ovarian; SF-268 CNS; SF-295 CNS; SF-539 CNS; SN12C renal; SW-620 colon; NCI-H226 lung; OVCAR-4 ovarian.
Holding throughout (experiment): NCI-60 cell line screen, 48 h

In the case of `O=C1CC(Br)c2c(Cl)sc(Cl)c21` (stereo not drawn), the TGI in the experiment on BT-549 breast was determined as 61.4 µM; in the experiment with COLO 205 colon it was 28.6 µM; with MOLT-4 leukemia, 5.54 µM; in the experiment on NCI-H522 lung, 37.3 µM; in the experiment on OVCAR-3 ovarian, 6.32 µM; in the experiment with SF-268 CNS, 26.6 µM. Moreover, the TGI in the experiment with SF-295 CNS is 30.2 µM; with SF-539 CNS it was over 100 µM; in the experiment with SN12C renal, 30.6 µM; with SW-620 colon, 5.43 µM.

As for `c1ccc2nc3[nH]c4ccccc4c3cc2c1`, the TGI in the experiment on BT-549 breast amounted to 2.87 µM; with COLO 205 colon, 1.53 µM; with MOLT-4 leukemia it was 1.36 µM; with NCI-H226 lung, 18.3 µM; in the experiment with NCI-H522 lung, 1.52 µM; in the experiment on OVCAR-4 ovarian it was 2.79 µM. Also, the TGI in the experiment on SF-268 CNS turned out to be 7.3 µM; with SF-295 CNS, 2.24 µM; in the experiment on SF-539 CNS it was 1.23 µM; in the experiment on SN12C renal, 3.34 µM.

In the case of `CC1=C/C(=N/N2C(=O)/C(=C/c3ccc(Cl)cc3)N=C2c2ccccc2)CC(C)(C)C1`, the TGI in the experiment on BT-549 breast, in the experiment with COLO 205 colon, with MOLT-4 leukemia, in the experiment with NCI-H226 lung, in the experiment with NCI-H522 lung and in the experiment with OVCAR-4 ovarian was over 100 µM each time. Also, the TGI with SF-268 CNS, in the experiment with SF-295 CNS, in the experiment on SF-539 CNS, in the experiment on SN12C renal and with SW-620 colon was over 100 µM throughout.

For the molecule `O=c1nc2n(cc1/C=C\Br)C1CC(O)C(CO2)O1` (stereo not drawn), the TGI with BT-549 breast, in the experiment with COLO 205 colon, with MOLT-4 leukemia, in the experiment with NCI-H226 lung, in the experiment with OVCAR-3 ovarian and with OVCAR-4 ovarian was over 100 µM in each case. Further, the TGI with SF-268 CNS, in the experiment with SF-295 CNS, in the experiment on SF-539 CNS, in the experiment on SN12C renal and with SW-620 colon was over 100 µM each time.

As to `Cc1nc2c(nc1C)-c1c(c3c(n1Cc1ccccc1)C(=O)CCC3)C(=O)C2=O`, the TGI was 5.84 µM in the experiment on BT-549 breast; over 100 µM with COLO 205 colon; over 100 µM in the experiment on MOLT-4 leukemia; 48.4 µM with NCI-H226 lung; 7.28 µM with NCI-H522 lung; 3.59 µM in the experiment on OVCAR-4 ovarian. The same molecule had a TGI in the experiment with SF-295 CNS of 71.1 µM.

With `CN1CCN(CC(=O)Nc2ccc3ncnc(Nc4ccc(Oc5cccc(C(F)(F)F)c5)c(Cl)c4)c3c2)CC1`, the GI50 in the experiment on BT-549 breast is 1.47 µM; in the experiment on OVCAR-3 ovarian, 1.49 µM; in the experiment on OVCAR-4 ovarian, 1.51 µM; in the experiment on SF-268 CNS it was 1.49 µM; with SF-295 CNS, 1.81 µM; in the experiment with SF-539 CNS, 1.6 µM. The figures for the GI50 in the experiment with SN12C renal and in the experiment with SW-620 colon were 1.7 µM and 1.72 µM, respectively. Further, the TGI stood at 2.85 µM with BT-549 breast; 2.87 µM in the experiment on OVCAR-3 ovarian; 3.02 µM in the experiment on OVCAR-4 ovarian; 3.11 µM in the experiment on SF-268 CNS; 3.31 µM in the experiment on SF-295 CNS; 2.99 µM with SF-539 CNS. In addition, the TGI was determined as 3.26 µM in the experiment on SN12C renal and 3.25 µM in the experiment on SW-620 colon.

On to `O=c1ccc2ccccc2o1`, for which the TGI in the experiment with COLO 205 colon, with MOLT-4 leukemia, in the experiment with NCI-H226 lung, with NCI-H522 lung, in the experiment on OVCAR-3 ovarian and with OVCAR-4 ovarian was over 100 µM each time. Also, the TGI with SF-268 CNS, with SF-295 CNS, with SF-539 CNS, in the experiment with SN12C renal and in the experiment on SW-620 colon was over 100 µM throughout.

Consider `CC1=C(C2=C(C)C(=O)C(=O)c3cc(C)ccc32)c2ccc(C)cc2C(=O)C1=O`, for which the TGI in the experiment on BT-549 breast was 0.374 µM; with COLO 205 colon, 0.525 µM; in the experiment on NCI-H226 lung it was 6.48 µM; with NCI-H522 lung, 0.631 µM; in the experiment with OVCAR-3 ovarian, 0.323 µM; with SF-295 CNS, 0.373 µM. The TGI in the experiment with SF-539 CNS worked out at 0.346 µM; in the experiment with SN12C renal, 0.314 µM.

For `Oc1ccc2c(c1)OCC(O)(c1ccccc1O)C2` (stereo not drawn), the TGI with BT-549 breast, in the experiment on COLO 205 colon, with MOLT-4 leukemia, with NCI-H226 lung, with OVCAR-3 ovarian and in the experiment on OVCAR-4 ovarian was over 100 µM throughout. Moreover, the TGI in the experiment with SF-268 CNS, in the experiment on SF-295 CNS, with SF-539 CNS, in the experiment with SN12C renal and in the experiment with SW-620 colon was over 100 µM throughout.

In the case of `CCOC(=O)c1c(C)n(Cc2ccccc2)c2c1cc(O)c1[nH]c3c(c12)CCCC3`, the TGI with BT-549 breast turned out to be 24.6 µM; in the experiment on COLO 205 colon, 18.9 µM; in the experiment on MOLT-4 leukemia, 12.6 µM; with NCI-H522 lung, 2.58 µM; in the experiment on OVCAR-3 ovarian it was 6.2 µM; in the experiment with OVCAR-4 ovarian it was 4.08 µM. In addition, the TGI in the experiment with SF-268 CNS is 5.16 µM; with SF-295 CNS it was 11.5 µM; in the experiment with SF-539 CNS, 5.54 µM; in the experiment with SN12C renal, 17.8 µM; in the experiment on SW-620 colon, 13.3 µM.

`C#CC(O)/C=C/CCCCCCC#CC/C=C\CC#CCCCCCC/C=C/C(O)C#C` (stereo not drawn): the TGI was 9.61 µM with BT-549 breast; 4.29 µM in the experiment with COLO 205 colon; 0.371 µM in the experiment with MOLT-4 leukemia; 14 µM in the experiment with NCI-H226 lung; 7.99 µM in the experiment on OVCAR-3 ovarian; 10.1 µM in the experiment on OVCAR-4 ovarian. For the same molecule, the TGI worked out at 10.8 µM in the experiment with SF-268 CNS; 26.9 µM with SF-295 CNS; 41.2 µM with SF-539 CNS; 4.02 µM in the experiment with SN12C renal; 7.3 µM in the experiment with SW-620 colon.

In the case of `CCOC(OCC)C(CC)[Se]c1ccccc1[N+](=O)[O-]` (stereo not drawn), the TGI in the experiment with COLO 205 colon is 8.92 µM; in the experiment on MOLT-4 leukemia, over 86.7 µM; in the experiment with NCI-H226 lung, 18.4 µM; with NCI-H522 lung, 4.45 µM; with OVCAR-3 ovarian, 6.56 µM; in the experiment on OVCAR-4 ovarian it was over 100 µM. Also, the TGI in the experiment with SF-268 CNS is 63.9 µM; in the experiment with SF-295 CNS it was over 22.9 µM; with SF-539 CNS, 5.61 µM; in the experiment with SN12C renal, over 61.2 µM; in the experiment with SW-620 colon, over 100 µM.

As to `COc1cc(/C=C2\N=C(c3ccccc3)N(C3Nc4cc5c(cc4S3)NC(N3C(=O)/C(=C/c4cc(OC)c(OC)c(OC)c4)N=C3c3ccccc3)S5)C2=O)cc(OC)c1OC` (stereo not drawn), the TGI in the experiment with BT-549 breast, in the experiment on MOLT-4 leukemia, in the experiment on NCI-H226 lung, in the experiment on NCI-H522 lung, in the experiment with OVCAR-3 ovarian and in the experiment on OVCAR-4 ovarian was over 100 µM throughout. Besides, the TGI in the experiment with SF-268 CNS, in the experiment on SF-295 CNS, with SF-539 CNS and in the experiment on SW-620 colon was over 100 µM each time.
